# Source: US20250302967A1, “PEPTIDE FORMULATIONS AND USES THEREOF” (Amytrx Therapeutics, Inc., priority 2022, published 2025)
# Positions of bridges follow the written chain, without caps; N, C: chain ends. Residues, ends and D or L forms follow the SMILES beside them.
# Assay: PK/biodistribution following single topical dose: whole blood and plasma radioactivity
# Assay type: in vivo, male albino rats
# Parameters: Non-plasma compartment: unit not given beside the values
# Details: rat; for Concentration of radioactivity in recovered white blood cells: reverse wash of filters
# Procedure: Whole blood and plasma radioactivity analysis, quantitative whole-body autoradiography (QWBA), and micro-autoradiography (mARG) studies are performed following a single topical dose administration to male rats. Formulation 1, Formulation 2, or Formulation 3, where Compound 1 is 3H-Compound 1, are applied in a single topical dose at a target dose of 5 mg/kg to six male albino rats.
# An additional three male albino rats received a single topical appropriate amount of CETAPHIL (R) applied to the dose site approximately 1 hour prior to application of ^3H-Compound 1 in a single topical dose at a target dose of 5 mg/kg. An individual rat receiving the emollient pre-treatment was used for a single time-point of 2 hours, 8 hours, and 48 hours.
# [1] = CETAPHIL 1 hr prior to single topical 5 mg/kg, 48 h, dosing device removed by rat, potential oral administration by grooming
# [2] = CETAPHIL 1 hr prior to single topical 5 mg/kg, 48 h, dosing device removed, potential oral administration
# [3] = CETAPHIL emollient 1 hr prior to single topical 5 mg/kg, 2 h
# [4] = CETAPHIL emollient 1 hr prior to single topical 5 mg/kg, 8 h
# [5] = single topical 5 mg/kg, without CETAPHIL, 1 h
# [6] = single topical 5 mg/kg, without CETAPHIL, 1 h post-dose
# [7] = single topical 5 mg/kg, without CETAPHIL, 2 h
# [8] = single topical 5 mg/kg, without CETAPHIL, 2 h post-dose
# [9] = single topical 5 mg/kg, without CETAPHIL, 4 h
# [10] = single topical 5 mg/kg, without CETAPHIL, 4 h post-dose
# [11] = single topical 5 mg/kg, without CETAPHIL, 8 h
# [12] = single topical 5 mg/kg, without CETAPHIL, 8 h post-dose
# [13] = single topical 5 mg/kg, without CETAPHIL, 24 h
# [14] = single topical 5 mg/kg, without CETAPHIL, 24 h post-dose
# [15] = single topical 5 mg/kg, without CETAPHIL, 48 h
# [16] = single topical 5 mg/kg, without CETAPHIL, 48 h post-dose
structure (smiles),measurement,setting,value
CSCC[C@@H]1NC(=O)[C@H](CC(C)C)NC(=O)[C@H](CCCCN)NC(=O)[C@H](CCC(N)=O)NC(=O)[C@H](CCCNC(=N)N)NC(=O)[C@H](CCCCN)NC(=O)[C@H](CCCNC(=N)N)NC(=O)[C@H](CCC(N)=O)NC(=O)[C@H](C(C)C)NC(=O)[C@@H](NC(=O)[C@@H]2CCCN2C(=O)[C@H](C)NC(=O)[C@H](CC(C)C)NC(=O)[C@H](CC(C)C)NC(=O)[C@H](C)NC(=O)[C@H](CC(C)C)NC(=O)[C@H](CC(C)C)NC(=O)[C@@H](NC(=O)[C@H](C)NC(=O)[C@@H]2CCCN2C(=O)[C@H](CC(C)C)NC(=O)[C@H](CC(C)C)NC(=O)[C@H](C)NC(=O)[C@@H](NC(=O)[C@H](C)NC(=O)[C@H](C)N)C(C)C)C(C)C)CSSC[C@@H](C(=O)O)NC(=O)[C@@H]2CCCN2C1=O [^3H-Compound 1] (H-AAVALLPAVLLALLAPCVQRKRQKLMPC-OH; disulfide 17-28),"Cmax, total radioactivity","Plasma, single topical 5 mg/kg",14.53 ng/mL
same,"Cmax, total radioactivity","Whole blood -WBC, single topical 5 mg/kg",11.68 ng/mL
same,"Cmax, total radioactivity","Whole blood, single topical 5 mg/kg",2.282 ng/mL
same,Blood,[1],1630 ng/mL
same,Plasma,[1],2312 ng/mL
same,Non-plasma compartment,[2],19.2
same,Partition coefficient,[2],80.8
same,WBC depleted blood,[2],303.9 ng equivalents/mL
same,Blood,[3],4.444 ng/mL
same,Non-plasma compartment,[3],26.5
same,Partition coefficient,[3],73.5
same,Plasma,[3],5.443 ng/mL
same,WBC depleted blood,[3],2.333 ng equivalents/mL
same,Blood,[4],16.05 ng/mL
same,Non-plasma compartment,[4],21.3
same,Partition coefficient,[4],78.7
same,Plasma,[4],21.04 ng/mL
same,WBC depleted blood,[4],3.223 ng equivalents/mL
same,persistence in the blood,after a single topical administration,> 48 h
same,time to penetrate the skin deep enough to reach blood vessels,"cream formulation, single topical administration",less than one hour
same,Concentration of radioactivity in recovered white blood cells,"single topical 5 mg/kg, 1 h post-dose, may not represent total white blood cells",BLQ
same,Concentration of radioactivity in recovered white blood cells,"single topical 5 mg/kg, 2 h post-dose",BLQ
same,Concentration of radioactivity in recovered white blood cells,"single topical 5 mg/kg, 4 h post-dose",BLQ
same,Concentration of radioactivity in recovered white blood cells,"single topical 5 mg/kg, 8 h post-dose",BLQ
same,Concentration of radioactivity in recovered white blood cells,"single topical 5 mg/kg, 24 h post-dose",BLQ
same,Concentration of radioactivity in recovered white blood cells,"single topical 5 mg/kg, 48 h post-dose",BLQ
same,Non-plasma compartment,[5],43.1
same,Partition coefficient,[5],56.9
same,Concentration of radioactivity in WBC depleted blood,[6],BLQ
same,Concentration of radioactivity in plasma,[6],1.764 ng equivalents/mL
same,Concentration of radioactivity in whole blood,[6],1.923 ng equivalents/mL
same,Non-plasma compartment,[7],24.9
same,Partition coefficient,[7],75.1
same,Concentration of radioactivity in WBC depleted blood,[8],BLQ
same,Concentration of radioactivity in plasma,[8],4.818 ng equivalents/mL
same,Concentration of radioactivity in whole blood,[8],3.850 ng equivalents/mL
same,Non-plasma compartment,[9],34.0
same,Partition coefficient,[9],66.0
same,Concentration of radioactivity in WBC depleted blood,[10],0.735 ng equivalents/mL
same,Concentration of radioactivity in plasma,[10],4.896 ng equivalents/mL
same,Concentration of radioactivity in whole blood,[10],4.303 ng equivalents/mL
same,Non-plasma compartment,[11],27.8
same,Partition coefficient,[11],72.2
same,Concentration of radioactivity in WBC depleted blood,[12],2.282 ng equivalents/mL
same,Concentration of radioactivity in plasma,[12],14.53 ng equivalents/mL
same,Concentration of radioactivity in whole blood,[12],11.68 ng equivalents/mL
same,Non-plasma compartment,[13],30.4
same,Partition coefficient,[13],69.6
same,Concentration of radioactivity in WBC depleted blood,[14],1.166 ng equivalents/mL
same,Concentration of radioactivity in plasma,[14],6.709 ng equivalents/mL
same,Concentration of radioactivity in whole blood,[14],5.593 ng equivalents/mL
same,Non-plasma compartment,[15],21.7
same,Partition coefficient,[15],78.3
same,Concentration of radioactivity in WBC depleted blood,[16],1.109 ng equivalents/mL
same,Concentration of radioactivity in plasma,[16],6.287 ng equivalents/mL
same,Concentration of radioactivity in whole blood,[16],4.978 ng equivalents/mL
same,partitioning among blood components,"single topical dose, WBCs versus RBCs and RBC/WBC-depleted plasma",partitions to the WBCs (white blood cells) of blood preferentially
